According to ChEMBL document CHEMBL5038635, “Discovery of Salidroside-Derivated Glycoside Analogues as Novel Angiogenesis Agents to Treat Diabetic Hind Limb Ischemia” (J Med Chem, 2022):
Converted amounts (≈) assume the structure as drawn. The source made the active and inactive calls. The rule behind the calls is not given here.

What was measured:
[1] = test system: C2C12; assay: Apoptotic rate in hyperglycemia-treated mouse C2C12 cells assessed as early apoptotic cells at 15 uM by AnnexinV-FITC/PI staining based flow cytometric analysis (reference value: 7.10 %); format: functional
[2] = test system: C2C12; assay: Angiogenesis activity in mouse C2C12 cells with silenced HIF-1alpha assessed increase in cell migration at 30 uM under hyperglycemic condition incubated for 24 hrs by crystal violet dye based transwell chamber assay; format: functional
[3] = test system: HUVEC; assay: Induction proliferation of human HUVEC cells assessed as increase in number of EdU-positive cells using conditioned medium of mouse C2C12 cells with silenced HIF-1alpha treated at 30 uM under hyperglycemic condition for 12 hrs followed by hypoxia for 24 hrs by EdU-incorporation assay; format: functional, cell-based; details: time 36.0 hrs
[4] = test system: Mus musculus; assay: Antidiabetic activity in diabetic HLI C57BL/6 mouse model assessed as morphological changes at 30 mg/kg administered intramuscularly; format: functional, organism-based
[5] = molecular target: Hypoxia-inducible factor 1-alpha (Mus musculus) (UniProt Q61221); assay: Inhibition of HIF-1alpha in mouse C2C12 cells transfected with PDGF-B driven firefly luciferase gene assessed as transcriptional activity pretreated with compound for 12 hr followed by hypoxic condition for 24 hrs by dual luciferase reporter gene assay; format: cell-based; details: time 36.0 hrs
Sequence of Hypoxia-inducible factor 1-alpha (Mus musculus) (Q61221 whole entry): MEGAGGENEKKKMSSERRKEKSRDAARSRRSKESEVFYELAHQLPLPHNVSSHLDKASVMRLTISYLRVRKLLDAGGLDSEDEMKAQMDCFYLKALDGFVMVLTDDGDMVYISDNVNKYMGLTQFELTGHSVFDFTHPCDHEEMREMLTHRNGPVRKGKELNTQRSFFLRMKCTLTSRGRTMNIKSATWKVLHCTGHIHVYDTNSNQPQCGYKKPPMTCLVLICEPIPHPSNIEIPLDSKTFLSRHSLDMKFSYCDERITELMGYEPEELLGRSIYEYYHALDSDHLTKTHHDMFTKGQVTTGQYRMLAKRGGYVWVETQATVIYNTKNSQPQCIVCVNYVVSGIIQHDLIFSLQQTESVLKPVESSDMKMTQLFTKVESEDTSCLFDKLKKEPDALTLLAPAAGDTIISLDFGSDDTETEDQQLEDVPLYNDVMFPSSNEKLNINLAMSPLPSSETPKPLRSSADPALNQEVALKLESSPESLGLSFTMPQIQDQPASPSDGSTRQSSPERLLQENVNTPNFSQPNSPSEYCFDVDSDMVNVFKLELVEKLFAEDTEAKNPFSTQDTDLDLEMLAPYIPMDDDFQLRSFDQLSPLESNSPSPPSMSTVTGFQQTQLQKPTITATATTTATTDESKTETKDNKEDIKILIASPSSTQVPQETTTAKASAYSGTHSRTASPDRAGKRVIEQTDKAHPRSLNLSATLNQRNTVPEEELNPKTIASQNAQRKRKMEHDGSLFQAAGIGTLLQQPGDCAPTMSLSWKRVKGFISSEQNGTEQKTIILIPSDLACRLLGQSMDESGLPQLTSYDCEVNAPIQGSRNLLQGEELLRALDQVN

[6] = Permeability coefficient across apical to basolateral side in human Caco-2 cells by HPLC-UV analysis
[7] = test system: Mus musculus; assay: Antidiabetic activity in diabetic HLI C57BL/6 mouse model assessed as increase in blood perfusion recovery at 30 mg/kg administered intramuscularly; format: functional, organism-based
[8] = test system: C2C12; assay: Upregulation of VEGF-A protein expression in mouse C2C12 cells at 30 uM by Western blot analysis; format: functional, cell-based
[9] = test system: C2C12; assay: Apoptotic rate in mouse C2C12 cells with silenced HIF-1alpha assessed as late apoptotic cells at 30 uM by AnnexinV-FITC/PI staining based FACS analysis (reference value: 9.62 %); format: functional
[10] = test system: C2C12; assay: Reversal of hyperglycemia-induced VEGF-A protein level reduction in mouse C2C12 cells measured at 30 uM by ELISA; format: functional, cell-based
[11] = test system: Mus musculus; assay: Antidiabetic activity in diabetic HLI C57BL/6 mouse model assessed as effect on blood glucose level at 15 mg/kg administered intramuscular; format: functional, organism-based
[12] = Water solubility of the compound by HPLC analysis
[13] = Toxicity in diabetic HLI C57BL/6 mouse model assessed as kidney pathology at 30 mg/kg, IM administered by HE staining based assay; format: organism-based; details: in vivo
[14] = test system: C2C12; assay: Upregulation of HGF protein expression in mouse C2C12 cells at 30 uM by Western blot analysis; format: functional, cell-based
[15] = test system: C2C12; assay: Apoptotic rate in hyperglycemia-treated mouse C2C12 cells assessed as necrotic cells at 15 uM by AnnexinV-FITC/PI staining based flow cytometric analysis (reference value: 0.56 %); format: functional
[16] = Protein binding in human plasma by balanced dialysis method; format: ADME, cell-free; details: read-out: PPB (converted)
[17] = test system: C2C12; assay: Reversal of cell migration in mouse C2C12 cells at 30 uM under hyperglycemic condition incubated for 24 hrs by crystal violet dye based transwell chamber assay; format: functional
[18] = test system: C2C12; assay: Upregulation of PDGF-B protein expression in mouse C2C12 cells at 30 uM by Western blot analysis; format: functional, cell-based
[19] = test system: HUVEC; assay: Angiogenesis activity in human HUVEC cells assessed as suppression of cell migration using conditioned medium of mouse C2C12 cells treated at 30 uM under hyperglycemic condition for 12 hrs followed by hypoxia for 24 hrs by crystal violet dye based transwell assay; format: functional; details: time 36.0 hrs
[20] = test system: C2C12; assay: Induction of cell migration in mouse C2C12 cells at 30 uM under hyperglycemic condition incubated for 24 hrs by crystal violet dye based transwell chamber assay; format: functional
[21] = test system: C2C12; assay: Upregulation of EPO protein expression in mouse C2C12 cells at 30 uM by Western blot analysis; format: functional, cell-based
[22] = Octanol/Water partition coefficient, log P of the compound by HPLC-UV analysis
[23] = test system: HUVEC; assay: Angiogenesis activity in human HUVEC cells assessed as increase of cell migration using conditioned medium of mouse C2C12 cells with silenced HIF-1alpha treated at 30 uM under hyperglycemic condition for 12 hrs followed by hypoxia for 24 hrs by crystal violet dye based transwell assay; format: functional; details: time 36.0 hrs
[24] = test system: C2C12; assay: Upregulation of ANGPTL4 protein expression in mouse C2C12 cells at 30 uM by Western blot analysis; format: functional, cell-based
[25] = test system: Mus musculus; assay: Angiogenic activity in diabetic HLI C57BL/6 mouse model assessed as increase in number of PECAM-1-positive cells at 30 mg/kg administered intramuscularly for 21 days followed by surgery by immunofluorescence analysis; format: functional, organism-based; details: time 21.0 day
[26] = test system: C2C12; assay: Apoptotic rate in mouse C2C12 cells with silenced HIF-1alpha assessed as necrotic cells at 30 uM by AnnexinV-FITC/PI staining based FACS analysis (reference value: 0.31 %); format: functional
[27] = test system: C2C12; assay: Apoptotic rate in hyperglycemia-treated mouse C2C12 cells assessed as early apoptotic cells at 30 uM by AnnexinV-FITC/PI staining based flow cytometric analysis (reference value: 7.10 %); format: functional
[28] = test system: MOVAS-1; assay: (§1) Angiogenesis activity in mouse MOVAS-1 cells assessed as suppression of cell migration using conditioned medium of mouse C2C12 cells with silenced HIF-1alpha treated at 30 uM under hyperglycemic condition for 12 hrs followed by hypoxia for 24 hrs in presence of PDGF-BB inhibitor CP868596 by crystal violet dye based transwell assay; format: functional; details: time 36.0 hrs
[29] = test system: C2C12; assay: Upregulation of FGF1protein expression in mouse C2C12 cells at 30 uM by Western blot analysis; format: functional, cell-based
[30] = test system: C2C12; assay: Angiogenesis activity in mouse C2C12 cells assessed as increase in cell migration at 30 uM under hyperglycemic condition for 12 hrs followed by hypoxia for 24 hrs presence of MeOE2 inhibitor by crystal violet dye based transwell assay; format: functional; details: time 36.0 hrs
[31] = Efflux ratio of Apparent permeability across basolateral to apical side over apical to basolateral side in human Caco-2 cells
[32] = Toxicity in diabetic HLI C57BL/6 mouse model assessed as effect on body weight at 15 to 100 mg/kg, im administered measured after 21 days; format: organism-based; details: in vivo, 504 h, dose 15-100 mg/kg, time 21 day
[33] = test system: Mus musculus; assay: Angiogenesis activity in nondiabetic HLI C57BL/6 mouse model assessed as as increase in blood perfusion recovery at 30 mg/kg, im administered for 14 days; format: functional, organism-based; details: time 14.0 day
[34] = test system: C2C12; assay: Angiogenic activity in mouse C2C12 cells assessed as reversal of hyperglycemia-induced reduction in total cell number at 100 uM measured after 24 to 36 hrs by EdU-incorporation assay; format: functional, cell-based; details: time 24-36 hrs
[35] = test system: C2C12; assay: Apoptotic rate in hyperglycemia-treated mouse C2C12 cells assessed as viable cells at 30 uM by AnnexinV-FITC/PI staining based flow cytometric analysis (reference value: 81.90 %); format: functional; details: read-out: Activity
[36] = test system: C2C12; assay: Induction of proliferation of hyperglycemia-induced mouse C2C12 cell apoptosis assessed as decrease in Annexin V/PI-positive cells at 15 uM pretreated with compound under hyperglycemia condition for 12 hr followed by hypoxia for 24 hrs; format: functional, cell-based; details: time 36.0 hrs
[37] = test system: C2C12; assay: Apoptotic rate in mouse C2C12 cells with silenced HIF-1alpha assessed as viable cells at 30 uM by AnnexinV-FITC/PI staining based FACS analysis (reference value: 86.05 %); format: functional; details: read-out: Activity
[38] = test system: HUVEC; assay: as §1, with “Antiangiogenesis” for “Angiogenesis”, “human HUVEC” for “mouse MOVAS-1”; format: functional; details: time 36.0 hrs

What does the source list for `COc1ccc(Cc2cccc(O[C@@H]3O[C@H](CO)[C@@H](O)[C@H](O)[C@H]3O)c2)cc1`?
Activity [1]: 3.14%; Activity [2]: inactive; Activity [3]: Active; Activity [4]: Active; inhibition [5]: Active; Papp A→B [6]: 1.04 ×10⁻⁶ cm/s; Activity [7]: Active; Activity [8]: Active; Activity [9]: 14.63%; Activity [10]: Active; Activity [11]: Active; solubility [12]: 1910 µg/mL (≈ 5.07 mM); Activity [13]: Non-Toxic; Activity [14]: Active; Activity [15]: 0.38%; fraction unbound [16]: 0.669; Activity [17]: Active; Activity [18]: Active; Activity [19]: Active; Activity [20]: Active; Activity [21]: Active; logP [22]: 0.971; Activity [23]: Active; Activity [24]: Active; Activity [25]: Active; Activity [26]: 0.16%; Activity [27]: 2.13%; Activity [28]: inactive; Activity [29]: Active; Activity [30]: Active; efflux ratio [31]: 1.07; Activity [32]: Non-Toxic; Activity [33]: Active; Activity [34]: inactive; viability at 30 µM [35]: 93.6%; Activity [36]: Active; viability at 30 µM [37]: 82%; Activity [38]: inactive
